Data reported in patent US12448605B2, “Encapsulation and cardiac differentiation of hiPSCs in 3D PEG-fibrinogen hydrogels” (Auburn University, priority 2013, dated 2025).

Test system: spontaneously contracting 3D cultured CMs
Test: Calcium transient and spontaneous beating rate of dissociated, un-paced CMs in response to isoproterenol
Format: cell-based, human
Procedure: To immobilize cells for proper calcium transient acquisition, glass coverslips (21 mm, No. 1, Fisher Scientific) were coated with PDMS using a WS-400-6NPP spin coater (Laurell Technologies Corporation). Briefly, SLYGARD 184 silicone elastomer curing agent was mixed with SLYGARD 184 elastomer base (Dow Corning Corporation) at a ratio of 1:10, applied on the glass coverslips and evenly spin coated to obtain PDMS coated coverslips. These were dried at 60° C. for several hours, sterilized using 70% ethanol, and further dried under sterile conditions for at least 24 h. In order for successful single CM attachment, 1× fibronectin in ice cold ultrapure water was applied on PDMS coated coverslips and incubated for at least one hour at room temperature.
Day 14 2D monolayers and 3D tissues were dissociated using 0.25% trypsin (EDTA) at 37° C. for 5 and 8 min, respectively. Cells were singularized by pipetting, added to RPMI20 media49, and centrifuged for 5 min at 200 g. Singularized cells were resuspended in RPMI20+5 μM ROCK inhibitor and transferred onto fibronectin coated PDMS glass coverslips. Cells were incubated for 48 h to ensure uniform cell attachment. Media was then switched to RPMI/B27 and cells maintained for 3 to 5 days. CM calcium transient recordings were obtained using an IonOptix Myocyte Calcium and Contractility Recording System. Samples were incubated in 5 μM Fura-2AM dye (Molecular Probes) in 37° C. warm Tyrode's solution (1.8 mM CaCl2, 5 mM glucose, 5 mM HEPES, 1 mM MgCl2, 5.4 mM KCl, 135 mM NaCl, and 0.33 mM NaH2PO4, pH 7.4) for 30 mM CMs were paced at frequencies from 0.5 to 2.0 Hz (0.5 Hz increments) and stimulated at 30 V. Calcium transient duration at 50% and 80% time to baseline was recorded. In addition to responses to outside electrical stimuli, response to 0.5 μM isoproterenol was studied on un-paced CMs.

[1] = 0.5 μM isoproterenol, spontaneously contracting 3D cultured CMs, vs pre-isoproterenol, n=3, P<0.05

CC(C)NCC(O)c1ccc(O)c(O)c1 (stereo not shown) [isoproterenol]
calcium transient time to baseline 50% [1]: significantly shortened | calcium transient time to baseline 80% [1]: significantly shortened | spontaneous beating rate (post isoproterenol) (0.5 μM isoproterenol, un-paced day 14 3D cultured CMs, pre-isoproterenol 33 beats per min): 60 beats per min | spontaneous beating rate (change in words) (spontaneously contracting 3D cultured CMs, response to isoproterenol): increased
